Experimental data from patent publication US8952024B2, “Herbicidal pyrimidone derivatives” (E I du Pont de Nemours and Company, priority 2009, dated 2015).

Legend:
Assay type in all cases: in vivo
[1] = tested on: giant foxtail (Setaria faberii); test: Test A pre-/postemergence plant response
Procedure, shortened: (§1)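 Both pre- and postemergence treatments are applied simultaneously, using chemicals formulated in a non-phytotoxic solvent mixture with surfactant. Postemergence plants are 2–10 cm high with one to two leaves. After approximately ten days in a greenhouse, injury is scored visually from 0 (none) to 100 (complete control) relative to untreated plants.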

[2] = tested on: morningglory (Ipomoea spp.); test: Test A pre-/postemergence plant response
Procedure, shortened: as §1

[3] = tested on: pigweed (Amaranthus retroflexus); test: Test A pre-/postemergence plant response
Procedure, shortened: as §1

[4] = tested on: wheat (Triticum aestivum); test: Test A pre-/postemergence plant response
Procedure, shortened: as §1

corn (Zea mays) = test: Test A pre-/postemergence plant response
Procedure, shortened: as §1

[5] = tested on: barnyardgrass (Echinochloa crus-galli); test: Test A pre-/postemergence plant response
Procedure, shortened: as §1

[6] = tested on: large crabgrass (Digitaria sanguinalis); test: Test A pre-/postemergence plant response
Procedure, shortened: as §1

[7] = tested on: velvetleaf (Abutilon theophrasti); test: Test A pre-/postemergence plant response
Procedure, shortened: as §1

[8] = tested on: winter barley (Hordeum vulgare); test: Test B postemergence plant response
Procedure, shortened: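 Visual ratings from 0 (no effect) to 100 (complete control), made against controls 13–15 days after treatment, kept in a greenhouse. Compounds were applied postemergence to potted plants at the 1- to 4-leaf stage (2–18 cm).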

rice (Oryza sativa) = test: Test B flooded paddy test; details: for Plant response rating, Flood, Rice: 250 g ai/ha, flooded paddy test, visual rating on 0 to 100 scale (0 no effect, 100 complete control) after 13 to 15 days; for Plant response rating, Rice: Flood (flooded paddy test), 13 to 15 days
Procedure, shortened: (§2)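 Seedlings reaching 2 leaves are flooded 3 cm deep; test material is delivered to that water, which stays at the same depth. Plants remain in a greenhouse 13–15 days and are then scored by eye versus controls from 0 to 100.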

[9] = tested on: umbrella sedge (Cyperus difformis); test: Test B flooded paddy test; details: for Plant response rating, Flood, Sedge, Umbrella: 250 g ai/ha, flooded paddy test, visual rating on 0 to 100 scale (0 no effect, 100 complete control) after 13 to 15 days; for Plant response rating, Sedge, Umbrella: Flood (flooded paddy test), 13 to 15 days
Procedure, shortened: as §2

[10] = tested on: barnyardgrass (Echinochloa crus-galli); test: Test B flooded paddy test; details: for Plant response rating, Flood, Barnyardgrass: 250 g ai/ha, flooded paddy test, visual rating on 0 to 100 scale (0 no effect, 100 complete control) after 13 to 15 days; for Plant response rating, Barnyardgrass: Flood (flooded paddy test), 13 to 15 days
Procedure, shortened: as §2

[11] = tested on: ducksalad (Heteranthera limosa); test: Test B flooded paddy test; details: for Plant response rating, Flood, Ducksalad: 250 g ai/ha, flooded paddy test, visual rating on 0 to 100 scale (0 no effect, 100 complete control) after 13 to 15 days; for Plant response rating, Ducksalad: Flood (flooded paddy test), 13 to 15 days
Procedure, shortened: as §2

[12] = Postemergence, 125 g ai/ha, visual injury, 0 to 100 scale (0 no effect, 100 complete control), approx. ten days
[13] = Postemergence, 500 g ai/ha, 0 to 100 scale, 0 = no effect, 100 = complete control, approx. ten days
[14] = Preemergence, 125 g ai/ha, 0 to 100 scale, 0 = no effect, 100 = complete control
[15] = Preemergence, 500 g ai/ha, visual injury, 0 to 100 scale (0 no effect, 100 complete control), approx. ten days
[16] = 31 g ai/ha, scale of 0 to 100 where 0 is no effect and 100 is complete control
[17] = 62 g ai/ha, scale 0 to 100, 0 is no effect, 100 is complete control
[18] = 125 g ai/ha, scale 0 to 100, 0 is no effect, 100 is complete control
[19] = 62 g ai/ha, scale of 0 to 100 where 0 is no effect and 100 is complete control
[20] = Flood, 31 g ai/ha, scale 0 to 100 (0 no effect, 100 complete control)

5-[(2-hydroxy-6-oxo-1-cyclohexen-1-yl)carbonyl]-3-phenyl-2-(3-pyridinyl)-4(3H)-pyrimidone [Compound 113]
Foxtail, Giant plant response rating [1, 12]: 40
Plant response rating, Foxtail, Giant [1, 13]: 60
Plant response rating, Foxtail, Giant [1, 14]: 0
Plant response rating, Foxtail, Giant [1, 15]: 20
Morningglory plant response rating [2, 12]: 100
Plant response rating, Morningglory [2, 13]: 100
Plant response rating, Morningglory [2, 14]: 0
Plant response rating, Morningglory [2, 15]: 40
Pigweed plant response rating [3, 12]: 80
Plant response rating, Pigweed [3, 13]: 100
Plant response rating, Pigweed [3, 14]: 10
Plant response rating, Pigweed [3, 15]: 80
Wheat plant response rating [4, 12]: 0
Plant response rating, Wheat [4, 13]: 40
Plant response rating, Wheat [4, 14]: 0
Plant response rating, Wheat [4, 15]: 0
Corn plant response rating (corn (Zea mays); [12]): 0
Plant response rating, Corn (corn (Zea mays); [13]): 40
Plant response rating, Corn (corn (Zea mays); [14]): 0
Plant response rating, Corn (corn (Zea mays); [15]): 0
Barnyardgrass plant response rating [5, 12]: 30
Plant response rating, Barnyardgrass [5, 13]: 70
Plant response rating, Barnyardgrass [5, 14]: 0
Plant response rating, Barnyardgrass [5, 15]: 10
Crabgrass, Large plant response rating [6, 12]: 50
Plant response rating, Crabgrass, Large [6, 13]: 70
Plant response rating, Crabgrass, Large [6, 14]: 0
Plant response rating, Crabgrass, Large [6, 15]: 40
Velvetleaf plant response rating [7, 12]: 100
Plant response rating, Velvetleaf [7, 13]: 100
Plant response rating, Velvetleaf [7, 14]: 60
Plant response rating, Velvetleaf [7, 15]: 100
Plant response rating, Barley ([8]; Postemergence, 31 g ai/ha, scale 0 to 100 (0 no effect, 100 complete control)): 0
Plant response rating, Barley ([8]; Postemergence, 62 g ai/ha, scale 0 (no effect) to 100 (complete control), 13 to 15 days): 0
Plant response rating, Barley ([8]; Postemergence, 125 g ai/ha, scale 0 to 100 (0 no effect, 100 complete control), 13 to 15 days): 0
Barley plant response rating ([8]; Postemergence, 250 g ai/ha, scale 0 to 100): 0
Plant response rating, Flood, Rice (rice (Oryza sativa)): 0
Plant response rating, Rice (rice (Oryza sativa); [16]): 0
Plant response rating, Rice (rice (Oryza sativa); [17]): 0
Plant response rating, Rice (rice (Oryza sativa); [18]): 0
Plant response rating, Flood, Sedge, Umbrella [9]: 0
Plant response rating, Sedge, Umbrella [9, 16]: 0
Plant response rating, Sedge, Umbrella [9, 17]: 0
Plant response rating, Sedge, Umbrella [9, 18]: 0
Plant response rating, Flood, Barnyardgrass [10]: 0
Plant response rating, Barnyardgrass [10, 16]: 0
Plant response rating, Barnyardgrass [10, 17]: 0
Plant response rating, Barnyardgrass [10, 18]: 0
Plant response rating, Flood, Ducksalad [11]: 0
Plant response rating, Ducksalad [11, 16]: 0
Plant response rating, Ducksalad [11, 17]: 0
Plant response rating, Ducksalad [11, 18]: 0

CCCc1ncc(C(=O)C2=C(O)CCCC2=O)c(=O)n1CCC [Compound 72]
Foxtail, Giant plant response rating [1, 12]: 40
Plant response rating, Foxtail, Giant [1, 13]: 60
Plant response rating, Foxtail, Giant [1, 14]: 0
Plant response rating, Foxtail, Giant [1, 15]: 30
Morningglory plant response rating [2, 12]: 90
Plant response rating, Morningglory [2, 13]: 90
Plant response rating, Morningglory [2, 15]: 70
Pigweed plant response rating [3, 12]: 80
Plant response rating, Pigweed [3, 13]: 100
Plant response rating, Pigweed [3, 14]: 50
Plant response rating, Pigweed [3, 15]: 90
Wheat plant response rating [4, 12]: 0
Plant response rating, Wheat [4, 13]: 0
Plant response rating, Wheat [4, 14]: 0
Plant response rating, Wheat [4, 15]: 0
Corn plant response rating (corn (Zea mays); [12]): 0
Plant response rating, Corn (corn (Zea mays); [13]): 10
Plant response rating, Corn (corn (Zea mays); [14]): 0
Plant response rating, Corn (corn (Zea mays); [15]): 20
Barnyardgrass plant response rating [5, 12]: 80
Plant response rating, Barnyardgrass [5, 13]: 90
Plant response rating, Barnyardgrass [5, 14]: 10
Plant response rating, Barnyardgrass [5, 15]: 60
Crabgrass, Large plant response rating [6, 12]: 80
Plant response rating, Crabgrass, Large [6, 13]: 90
Plant response rating, Crabgrass, Large [6, 14]: 70
Plant response rating, Crabgrass, Large [6, 15]: 100
Velvetleaf plant response rating [7, 12]: 100
Plant response rating, Velvetleaf [7, 13]: 100
Plant response rating, Velvetleaf [7, 14]: 90
Plant response rating, Velvetleaf [7, 15]: 100
Plant response rating, Barley ([8]; 31 g ai/ha, postemergence, scale 0 to 100, 0 is no effect, 100 is complete control): 0
Barley plant response rating (0 to 100 scale) ([8]; 62 g ai/ha, postemergence, 0 is no effect, 100 is complete control, 13 to 15 days): 0
Plant response rating, Barley ([8]; Postemergence, 125 g ai/ha, visual rating after 13 to 15 days, scale 0 (no effect) to 100 (complete control)): 0
Plant response rating, Barley ([8]; Postemergence, 250 g ai/ha, scale 0 to 100 (0 no effect, 100 complete control)): 0
Plant response rating, Flood, Rice (rice (Oryza sativa)): 20
Plant response rating, Rice (rice (Oryza sativa); [19]): 0
Plant response rating, Rice (rice (Oryza sativa); [18]): 20
Rice plant response rating (rice (Oryza sativa); [20]): 0
Plant response rating, Flood, Sedge, Umbrella [9]: 30
Plant response rating, Sedge, Umbrella [9, 19]: 0
Plant response rating, Sedge, Umbrella [9, 18]: 0
Sedge, Umbrella plant response rating [9, 20]: 0
Plant response rating, Flood, Barnyardgrass [10]: 30
Plant response rating, Barnyardgrass [10, 19]: 0
Plant response rating, Barnyardgrass [10, 18]: 0
Barnyardgrass plant response rating [10, 20]: 0
Plant response rating, Flood, Ducksalad [11]: 0
Plant response rating, Ducksalad [11, 19]: 0
Plant response rating, Ducksalad [11, 18]: 0
Ducksalad plant response rating [11, 20]: 0
